Measured values taken from ChEMBL document CHEMBL2157879, “Improving the affinity of naphthalene diimide ligand to telomeric DNA by incorporating Zn²⁺ ions into its dipicolylamine groups” (Bioorg Med Chem, 2012).
Calls of active or inactive are those of the source. The calls are words filed in the database; no cut-off is given here.

Legend:
Nucleic Acid [1] = assay: Binding affinity to AGGG(TTAGGG)3 G-quadruplex in Tris-HCl buffer by spectrophotometric titration method in presence of 100 mM KCl; format: nucleic-acid assay
Nucleic Acid [2] = assay: Binding affinity to TAGGG(TTAGGG)3 G-quadruplex in Tris-HCl buffer by spectrophotometric titration method in presence of 100 mM KCl; format: nucleic-acid assay
Nucleic Acid [3] = assay: Binding affinity to AGGG(TTAGGG)3 G-quadruplex in Tris-HCl buffer assessed as change in melting temperature at 3 uM by CD titration method in presence of 100 mM KCl; format: nucleic-acid assay
Nucleic Acid [4] = assay: Binding affinity to TAGGG(TTAGGG)3 G-quadruplex in Tris-HCl buffer assessed as change in melting temperature at 3 uM by CD titration method in presence of 100 mM KCl; format: nucleic-acid assay
Nucleic Acid [5] = assay: Binding affinity to AGGG(TTAGGG)3 G-quadruplex in Tris-HCl buffer by UV-vis spectrophotometric titration method in presence of 100 mM KCl; format: nucleic-acid assay
Nucleic Acid [6] = assay: Binding affinity to AGGG(TTAGGG)3 G-quadruplex in Tris-HCl buffer assessed as change in melting temperature at 3 uM by CD titration method in presence of 100 mM NaCl; format: nucleic-acid assay
Nucleic Acid [7] = assay: Binding affinity to TAGGG(TTAGGG)3 G-quadruplex in Tris-HCl buffer assessed as change in melting temperature at 3 uM by CD titration method in presence of 100 mM NaCl; format: nucleic-acid assay
[8] = biological target: Telomerase reverse transcriptase (Homo sapiens, UniProt O14746); assay: Inhibition of telomerase-mediated primer elongation by gel electrophoresis-based TRAP assay
Nucleic Acid [9] = assay: Binding affinity to biotin-labeled AGGG(TTAGGG)3 at 1 to 960 nM by SPR analysis in presence of 0.15 mM NaCl; format: nucleic-acid assay
Nucleic Acid [10] = assay: Binding affinity to biotin-labeled TAGGG(TTAGGG)3 at 1 to 960 nM by SPR analysis in presence of 0.15 mM NaCl; format: nucleic-acid assay
Nucleic Acid [11] = assay: Binding affinity to biotin-labeled AGGG(TTAGGG)3 at 1 to 960 nM by SPR analysis in presence of […]; format: nucleic-acid assay
Nucleic Acid [12] = assay: Binding affinity to biotin-labeled TAGGG(TTAGGG)3 at 1 to 960 nM by SPR analysis in presence of […]; format: nucleic-acid assay
Nucleic Acid [13] = assay: Binding affinity to TAGGG(TTAGGG)3 G-quadruplex in Tris-HCl buffer by UV-vis spectrophotometric titration method in presence of 100 mM KCl; format: nucleic-acid assay
Nucleic Acid [14] = assay: Binding affinity to ds AGGG(TTAGGG)3 in Tris-HCl buffer after 2 hrs by UV-vis spectrophotometric titration method in presence of 100 mM KCl; format: nucleic-acid assay
Nucleic Acid [15] = assay: Binding affinity to ds AGGG(TTAGGG)3 in Tris-HCl buffer assessed as melting temperature at DNA/compound molar ratio 1:2 by CD titration method in presence of 100 mM KCl (reference value: 58 degC); format: nucleic-acid assay
Nucleic Acid [16] = assay: Stabilization of TAGGG(TTAGGG)3 G-quadruplex in Tris-HCl buffer at DNA/ligand molar ratio 1 to 4 by CD titration method 100 mM KCl; format: nucleic-acid assay
Nucleic Acid [17] = assay: Stabilization of AGGG(TTAGGG)3 G-quadruplex in Tris-HCl buffer at DNA/ligand molar ratio 1 to 4 by CD titration method in presence of 100 mM KCl; format: nucleic-acid assay

Sequence of Telomerase reverse transcriptase (O14746 whole entry): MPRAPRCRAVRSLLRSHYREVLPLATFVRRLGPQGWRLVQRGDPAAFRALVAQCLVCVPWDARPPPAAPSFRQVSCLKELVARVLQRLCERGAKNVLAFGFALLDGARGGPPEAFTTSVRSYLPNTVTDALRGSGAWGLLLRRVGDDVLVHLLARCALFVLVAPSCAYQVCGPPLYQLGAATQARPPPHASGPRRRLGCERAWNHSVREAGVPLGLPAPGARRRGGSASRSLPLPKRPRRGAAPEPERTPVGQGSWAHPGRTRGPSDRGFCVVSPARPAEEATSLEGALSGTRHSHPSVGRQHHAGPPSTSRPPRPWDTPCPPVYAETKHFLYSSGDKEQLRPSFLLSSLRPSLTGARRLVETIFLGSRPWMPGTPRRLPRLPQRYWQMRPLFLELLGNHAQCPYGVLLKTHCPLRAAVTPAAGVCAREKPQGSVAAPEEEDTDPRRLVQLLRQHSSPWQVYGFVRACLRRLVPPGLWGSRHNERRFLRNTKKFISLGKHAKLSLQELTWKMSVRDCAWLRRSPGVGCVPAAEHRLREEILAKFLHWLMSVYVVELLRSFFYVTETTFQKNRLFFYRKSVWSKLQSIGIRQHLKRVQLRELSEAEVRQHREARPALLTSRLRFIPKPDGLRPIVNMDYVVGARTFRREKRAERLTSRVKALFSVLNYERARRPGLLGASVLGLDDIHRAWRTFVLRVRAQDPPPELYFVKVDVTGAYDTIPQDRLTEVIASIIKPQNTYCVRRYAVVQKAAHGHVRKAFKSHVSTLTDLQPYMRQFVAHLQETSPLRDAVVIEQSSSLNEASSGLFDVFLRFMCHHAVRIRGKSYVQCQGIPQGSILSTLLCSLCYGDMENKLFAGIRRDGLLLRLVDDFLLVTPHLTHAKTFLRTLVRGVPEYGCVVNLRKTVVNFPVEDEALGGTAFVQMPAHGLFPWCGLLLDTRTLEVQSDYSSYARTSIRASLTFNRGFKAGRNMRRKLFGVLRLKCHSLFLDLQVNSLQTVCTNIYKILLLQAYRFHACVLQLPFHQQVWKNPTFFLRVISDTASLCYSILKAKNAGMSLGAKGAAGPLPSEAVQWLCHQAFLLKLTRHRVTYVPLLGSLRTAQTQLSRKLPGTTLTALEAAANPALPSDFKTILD

- K (Nucleic Acid [1]): 1.1 µM
- K (Nucleic Acid [2]): 2.8 µM
- ΔTm (Nucleic Acid [3]): 12 °C
- ΔTm (Nucleic Acid [4]): 13 °C
- Activity (Nucleic Acid [5]): inactive
- ΔTm (Nucleic Acid [6]): 1 °C
- ΔTm (Nucleic Acid [7]): 1 °C
- EC50 [8]: 4 µM
- Activity (Nucleic Acid [9]): inactive
- Activity (Nucleic Acid [10]): inactive
- Activity (Nucleic Acid [11]): Active
- Activity (Nucleic Acid [12]): Active
- Activity (Nucleic Acid [13]): inactive
- K (Nucleic Acid [14]): 0.9 µM
- Tm (Nucleic Acid [15]): 66 °C
- Activity (Nucleic Acid [16]): Active
- Activity (Nucleic Acid [17]): Active
Compound: CN(CCCN(Cc1ccccn1)Cc1ccccn1)CCCN1C(=O)c2ccc3c4c(ccc(c24)C1=O)C(=O)N(CCCN(C)CCCN(Cc1ccccn1)Cc1ccccn1)C3=O
